Positions count from the first letter of the chain named. “And” between values parts separate entries of the source, which are not always exact repeats. Equal entries are not always repeated.
Assays:
Format in all cases: biochemical
[1] = biological target: T1, PIN8 S146A (Arabidopsis thaliana, UniProt Q9LFP6, S146A); assay: SSM electrophysiology peak current response, PIN8 S146A proteoliposomes; settings: for Imax: PIN8 S146A
T1 sequence (Q9LFP6 1-367 S146A): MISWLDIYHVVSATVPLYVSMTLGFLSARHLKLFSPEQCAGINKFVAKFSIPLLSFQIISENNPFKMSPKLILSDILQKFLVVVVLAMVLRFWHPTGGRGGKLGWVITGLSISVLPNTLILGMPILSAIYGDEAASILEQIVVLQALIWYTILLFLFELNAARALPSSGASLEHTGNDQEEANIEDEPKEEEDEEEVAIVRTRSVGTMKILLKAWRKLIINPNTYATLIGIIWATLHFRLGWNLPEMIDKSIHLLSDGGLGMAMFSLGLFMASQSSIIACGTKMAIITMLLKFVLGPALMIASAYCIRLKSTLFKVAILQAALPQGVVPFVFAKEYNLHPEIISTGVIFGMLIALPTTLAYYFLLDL

[2] = biological target: T2, PIN8 S55A (Arabidopsis thaliana, UniProt Q9LFP6, S55A); assay: SSM electrophysiology peak current response, PIN8 S55A proteoliposomes; settings: for Imax: PIN8 S55A
T2 sequence (Q9LFP6 1-367 S55A): T1 sequence (Q9LFP6 1-367 S146A) with S55A, A146S

[3] = biological target: T3, PIN8 S266A (Arabidopsis thaliana, UniProt Q9LFP6, S266A); assay: SSM electrophysiology peak current response, PIN8 S266A proteoliposomes; settings: for Imax: PIN8 S266A
T3 sequence (Q9LFP6 1-367 S266A): T1 sequence (Q9LFP6 1-367 S146A) with A146S, S266A

[4] = biological target: T4, PIN8 N223A (Arabidopsis thaliana, UniProt Q9LFP6, N223A); assay: SSM electrophysiology peak current response, PIN8 N223A proteoliposomes; settings: for effect of N223A mutation on affinity/binding: PIN8 N223A vs WT
T4 sequence (Q9LFP6 1-367 N223A): T1 sequence (Q9LFP6 1-367 S146A) with A146S, N223A

[5] = biological target: T5, PIN8 S55A/S146A (Arabidopsis thaliana, UniProt Q9LFP6, S146A/S55A); assay: SSM electrophysiology peak current response, PIN8 S55A/S146A proteoliposomes; settings: for Imax: PIN8 S55A/S146A
T5 sequence (Q9LFP6 1-367 S55A/S146A): T1 sequence (Q9LFP6 1-367 S146A) with S55A

[6] = biological target: T6, PIN8 Y150F (Arabidopsis thaliana, UniProt Q9LFP6, Y150F); assay: SSM electrophysiology peak current response, PIN8 Y150F proteoliposomes; settings: for Imax: PIN8 Y150F
T6 sequence (Q9LFP6 1-367 Y150F): T1 sequence (Q9LFP6 1-367 S146A) with A146S, Y150F

[7] = biological target: T7, Arabidopsis thaliana PIN8 (Arabidopsis thaliana, UniProt Q9LFP6); assay: SSM electrophysiology peak current response, wild-type PIN8 proteoliposomes; settings: for EC50: EC50 of peak current response; for EC50 / Imax: WT PIN8, Michaelis-Menten fit; for peak width of SSM current response at various lipid-to-protein ratios (LPR): LPR10 vs LPR50, variation is consistent with transport
T7 sequence (Q9LFP6 1-367): T1 sequence (Q9LFP6 1-367 S146A) with A146S

Structure (SMILES) | EC50 [1] [µM] | Imax [1] [nA] | EC50 [2] [µM] | Imax [2] [nA] | EC50 [3] [µM] | Imax [3] [nA] | effect of N223A mutation on affinity/binding [4] | EC50 [5] [µM] | Imax [5] [nA] | EC50 [6] [µM] | Imax [6] [nA] | EC50 [7] | peak width of SSM current response at various lipid-to-protein ratios (LPR) [7] | Imax [7] [nA] | effect of S55A mutation on affinity ([2]; PIN8 S55A vs WT) | Imax ([4]; PIN8 N223A) [nA] | effect of S55A/S146A double mutation on affinity ([5]; PIN8 S55A/S146A vs WT)
O=C(O)COc1ccc(Cl)cc1Cl [2,4-D, 2,4-dichlorophenoxyacetic acid] | 164 ± 67 | 8 ± 0.9 | 95 ± 36 | 6 ± 0.6 | 774 ± 70 | 12 ± 0.7 | completely abolishes binding | 38 ± 6 | 9 ± 2 | 816 ± 275 | 8 ± 2 | 179 ± 10 µM | vary with LPR | 17 ± 2 |  |  | 
O=C(O)COc1ccc(Cl)cc1 [4-CPA, 4-chlorophenoxyacetic acid] | 369 ± 27 | 8 ± 2 | 328 ± 15 | 11 ± 1 | 2100 ± 290 | 7 ± 2 | completely abolishes binding | 81 ± 3 | 11 ± 0.9 | 710 ± 228 | 5 ± 0.9 | 800 ± 200 µM | vary with LPR | 12 ± 2 |  |  | 
O=C(O)Cc1c[nH]c2ccccc12 [IAA, indole-3-acetic acid] | 498 ± 191 | 8 ± 2 | 213 ± 58 | 6 ± 1 | 578 ± 183 | 4 ± 0.6 | reduces affinity for IAA only slightly | 341 ± 128 | 7 ± 2 | 452 ± 32 | 6 ± 2 | 250 µM and 254 µM | vary with LPR | 18 ± 3 | remains unchanged | 2 ± 0.8 | no effect
